Patent US4302461A, “Antiinflammatory 5-substituted-2,3-diarylthiophenes” (E. I. Du Pont de Nemours and Company, priority 1980, dated 1981)

Each compound was assayed on Established Adjuvant-Induced Arthritis in Rats (assay: Established Adjuvant-Induced Arthritis in Rats (uninjected left hind paw volume)). Details: Rattus norvegicus, 168 h; oral gavage once daily for 7 days (days 14-20); estimated by inspection of dose-response regression lines; read-out: ED50 % Decrease From Control Paw Volume.
Type: in vivo, Lewis (Wistar) male rats
`CCCCC1C(=O)N(c2ccccc2)N(c2ccccc2)C1=O` [Phenylbutazone, reference compound] gave an ED50 of 10 mg/kg.
`O=S(=O)(c1cc(-c2ccc(F)cc2)c(-c2ccc(F)cc2)s1)C(F)(F)F` [Example 2, 2,3-bis(4-Fluorophenyl)-5-(trifluoromethylsulfonyl)thiophene] showed an ED50 of 10 mg/kg.
Work on `Fc1ccc(-c2cc(SC(F)(F)F)sc2-c2ccc(Cl)cc2)cc1` [Example 9] yielded an ED50 of 10 mg/kg.
In the case of `CSc1ccc(-c2cc(SC(F)(F)F)sc2-c2ccc(F)cc2)cc1` [Example 24], the ED50 is reported as 0.15 mg/kg.
For `Fc1ccc(-c2sc(SC(F)(F)F)cc2-c2ccc(Cl)cc2)cc1` [Example 7], the ED50 was 4 mg/kg.
For `COc1ccc(-c2cc(SC(F)(F)F)sc2-c2ccc(S(C)(=O)=O)cc2)cc1` [Example 21], the ED50 was 9 mg/kg.
`Fc1ccc(-c2cc(SC(F)(F)F)sc2-c2ccc(F)cc2)cc1` [Example 1, 2,3-bis(4-Fluorophenyl)-5-(trifluoromethylthio)thiophene] was tested, and the ED50 was 3.5 mg/kg.
In the case of `CSc1ccc(-c2sc(SC(F)(F)F)cc2-c2ccc(F)cc2)cc1` [Example 22], the ED50 is reported as 0.4 mg/kg.

Same assay, conditions: Rattus norvegicus, 504 h; Daily Oral Dose 20 mg/kg, once daily for 7 days (days 14-20), paw volume on day 21; read-out: Percent Decrease from Control Paw Volume
For `COc1ccc(-c2cc(SC(F)(F)F)sc2-c2ccc(OC)cc2)cc1` [Example 6], the inhibition in vivo at 20 mg/kg was 32%.
In the case of `FC(F)(F)Sc1cc(-c2ccccc2)c(-c2ccccc2)s1` [Example 5], the inhibition in vivo at 20 mg/kg is reported as 33%.

Same assay, conditions: Rattus norvegicus, 504 h; Daily Oral Dose 27 mg/kg, once daily for 7 days (days 14-20), paw volume on day 21; read-out: Percent Decrease from Control Paw Volume
Compound `Fc1ccc(-c2cc(SC(F)(F)C(F)F)sc2-c2ccc(F)cc2)cc1` [Example 10] has an inhibition in vivo at 27 mg/kg of 28%.
In the case of `COc1ccc(-c2cc(SC)sc2-c2ccc(OC)cc2)cc1` [Example 3, 2,3-bis(4-Methoxyphenyl)-5-(methylthio)thiophene], the inhibition in vivo at 27 mg/kg is reported as 43%.
Work on `CSc1cc(-c2ccc(F)cc2)c(-c2ccc(F)cc2)s1` [Example 8] yielded an inhibition in vivo at 27 mg/kg of 25%.
Compound `O=S(=O)(c1cc(-c2ccc(F)cc2)c(-c2ccc(F)cc2)s1)C(F)(F)C(F)F` [Example 12] has an inhibition in vivo at 27 mg/kg of 34%.
Work on `COc1ccc(-c2cc(SC(F)(F)C(F)F)sc2-c2ccc(OC)cc2)cc1` [Example 4, 2,3-bis(4-Methoxyphenyl)-5-(1,1,2,2-tetrafluoroethylthio)thiophene] yielded an inhibition in vivo at 27 mg/kg of 11%.
`COc1ccc(-c2cc(S(=O)(=O)C(F)(F)C(F)F)sc2-c2ccc(OC)cc2)cc1` [Example 11] showed an inhibition in vivo at 27 mg/kg of 23%.

Same assay, conditions: Rattus norvegicus, 504 h; Daily Oral Dose 81 mg/kg, once daily for 7 days (days 14-20), paw volume on day 21; read-out: Percent Decrease from Control Paw Volume
`CCCCCCSc1cc(-c2ccc(OC)cc2)c(-c2ccc(OC)cc2)s1` [Example 20] gave an inhibition in vivo at 81 mg/kg of 39%.

Same assay, conditions: Rattus norvegicus, po, 168 h, read-out: ED50 % Decrease From Control Paw Volume
Compound `COc1ccc2c(c1)c(CC(=O)O)c(C)n2C(=O)c1ccc(Cl)cc1` [Indomethacin, reference compound] has an ED50 of 0.25 mg/kg.
`CC(=O)Oc1ccccc1C(=O)O` [Aspirin, reference compound] was tested, and the ED50 was 270 mg/kg.

Same assay, conditions: at the dose level tested
With `COc1ccc(-c2cc(SC(F)(F)C(F)F)sc2-c2ccc(OC)cc2)cc1` [Example 4, 2,3-bis(4-Methoxyphenyl)-5-(1,1,2,2-tetrafluoroethylthio)thiophene] the “antiinflammatory activity (statistical significance)” value was “did not exhibit statistically significant antiinflammatory activity”.
